Results published in ChEMBL document CHEMBL1130518, “11,21-Bisphenyl-19-norpregnane derivatives are selective antiglucocorticoids” (Bioorg Med Chem Lett, 1997).

What was measured:
[1] = Ratio of compound to that of glucocorticoid receptor binding and progesterone receptor binding was determined
[2] = target: T1, Progesterone receptor (Homo sapiens) (UniProt P06401); experiment: Relative binding affinity for human progesterone receptor in MCF-7 cell cytosols compared to Org 2058; assay type: cell-based
T1 sequence (whole entry): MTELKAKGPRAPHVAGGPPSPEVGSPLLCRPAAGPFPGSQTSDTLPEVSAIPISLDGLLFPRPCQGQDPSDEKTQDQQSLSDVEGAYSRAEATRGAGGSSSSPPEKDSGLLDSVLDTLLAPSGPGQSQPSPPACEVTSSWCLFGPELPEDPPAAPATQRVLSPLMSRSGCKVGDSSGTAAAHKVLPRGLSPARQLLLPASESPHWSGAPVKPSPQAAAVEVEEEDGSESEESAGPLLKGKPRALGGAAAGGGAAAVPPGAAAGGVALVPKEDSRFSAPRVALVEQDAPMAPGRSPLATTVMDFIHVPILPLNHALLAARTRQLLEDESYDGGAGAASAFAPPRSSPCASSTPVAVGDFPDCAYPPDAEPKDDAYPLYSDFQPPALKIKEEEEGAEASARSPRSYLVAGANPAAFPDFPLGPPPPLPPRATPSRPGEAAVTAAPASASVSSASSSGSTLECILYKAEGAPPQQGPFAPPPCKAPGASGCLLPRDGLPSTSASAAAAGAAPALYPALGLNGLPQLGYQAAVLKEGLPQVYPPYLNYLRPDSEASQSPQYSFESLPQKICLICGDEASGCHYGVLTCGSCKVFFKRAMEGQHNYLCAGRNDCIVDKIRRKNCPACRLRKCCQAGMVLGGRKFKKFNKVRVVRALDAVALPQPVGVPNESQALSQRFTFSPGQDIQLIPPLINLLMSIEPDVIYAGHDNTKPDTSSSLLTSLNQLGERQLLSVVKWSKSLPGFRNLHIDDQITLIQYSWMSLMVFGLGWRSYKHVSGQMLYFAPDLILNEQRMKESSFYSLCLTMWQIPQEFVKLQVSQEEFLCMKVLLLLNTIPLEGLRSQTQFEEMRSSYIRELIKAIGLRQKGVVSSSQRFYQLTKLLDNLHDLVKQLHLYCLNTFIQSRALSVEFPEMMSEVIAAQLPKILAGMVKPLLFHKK

Compound	Ratio [1]	Affinity [2]
CC#C[C@]1(O)CC[C@H]2[C@@H]3CCC4=CC(=O)CCC4=C3[C@@H](c3ccc(N(C)C)cc3)C[C@@]21C	5.4	36%
CN(C)c1ccc(C#C[C@]2(O)CCC3C4CCC5=CC(=O)CCC5=C4[C@@H](c4ccc(N(C)C)cc4)C[C@@]32C)cc1 (some centres undefined)	49	1.7%
CN(C)c1ccc([C@H]2C[C@@]3(C)C(CC[C@@]3(O)C#Cc3ccc(S(C)(=O)=O)cc3)C3CCC4=CC(=O)CCC4=C32)cc1 (some centres undefined)	44	2%
C[C@]12C[C@H](c3ccc4c(c3)OCCO4)C3=C4CCC(=O)C=C4CCC3C1CC[C@@]2(O)C#Cc1ccc(N2CCCC2=O)cc1 (some centres undefined)	490	0.2%
CN(C)c1ccc([C@H]2C[C@@]3(C)C(CC[C@@]3(O)C#Cc3ccccc3)C3CCC4=CC(=O)CCC4=C32)cc1 (some centres undefined)	6	16%
C[C@]12C[C@H](c3ccc4c(c3)OCO4)C3=C4CCC(=O)C=C4CCC3C1CC[C@@]2(O)C#Cc1ccc(S(C)(=O)=O)cc1 (some centres undefined)	488	0.4%
CN(C)c1ccc(/C=C/[C@]2(O)CCC3C4CCC5=CC(=O)CCC5=C4[C@@H](c4ccc(N(C)C)cc4)C[C@@]32C)cc1 (some centres undefined)	1	6.1%
